Legend:
[1] = tested on: RKO p27 or p21 uninduced (proliferating) colon adenocarcinoma cells; experiment: Alamar Blue cell viability assay, RKO p27 or p21 uninduced (proliferating); format: cell-based; details: Homo sapiens, RKOp27, 72 h, Table B2, anti-proliferative/cytotoxic activity, read-out: −log EC50 RKO p27 or p21 uninduced (proliferating) (converted)
Outline: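 RKO p21 or p27 subclones grown without Ponasterone A, i.e. proliferating, exposed 24 h after seeding to semi-log compound dilutions in DMEM/10% FCS (1% DMSO controls) for 72 h at 37° C. Alamar Blue fluorescence (544/590 nm) read relative to untreated cells; EC50 from dose-response curves, given as −log EC50 (mol/l).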

[2] = tested on: RKO p27 or p21 induced (arrested) colon adenocarcinoma cells; experiment: Alamar Blue cell viability assay, RKO p27 or p21 induced (arrested); format: cell-based; details: Homo sapiens, RKOp27, Table B2, cells arrested by Ponasterone A, 72 hours, read-out: −log EC50 RKO p27 or p21 induced (arrested) (converted)
Outline: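 RKOp21 or RKOp27 subclones in DMEM/10% FCS with 10 μM Ponasterone A to induce p21/p27 arrest, seeded 24 h before compound; triplicate 72 h exposure at 37 °C. Alamar Blue fluorescence (544/590 nm) as % of untreated (1% DMSO) cells; EC50 from dose-response curves, reported as −log EC50 (mol/l).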

| SMILES | EC50 [1] | EC50 [2] |
| --- | --- | --- |
| C[C@@]12Cc3c([nH]c4ccc(Cl)cc34)[C@@H](c3cccc(O)c3)N1C(=O)N(CCN1CCOCC1)C2=O (racemic) [Example 120, (3aSR,10RS)-6-Chloro-10-(3-hydroxy-phenyl)-3a-methyl-2-(2-morpholin-4-ylethyl)-3a,4,9,10-tetrahydro-2,9,10a-triaza-cyclopenta[b]fluorene-1,3-dione] | 39.8 to 251 nM | ≥ 316 nM |
| C#CCN(C)CCCN1C(=O)N2[C@H](c3cccc(O)c3)c3[nH]c4ccc(OC)cc4c3C[C@@]2(C)C1=O (racemic) [Example 144] | 39.8 to 251 nM | ≥ 316 nM |
| CCN(C)CCCN1C(=O)N2[C@H](c3cccc(O)c3)c3[nH]c4ccc(OC)cc4c3C[C@@]2(C)C1=O (racemic) [Example 77, (3aSR,10RS)-2-[3-(Ethyl-methyl-amino)-propyl]-10-(3-hydroxy-phenyl)-6-methoxy-3a-methyl-3a,4,9,10-tetrahydro-2,9,10a-triaza-cyclopenta[b]fluorene-1,3-dione] | ≤ 39.8 nM | ≥ 3160 nM |
| CCN(CCCN1C(=O)N2[C@H](c3cccc(O)c3)c3[nH]c4ccc(OC)cc4c3C[C@@]2(C)C1=O)CCOC (racemic) [Example 90, (3aSR,10RS)-2-{3-[Ethyl-(2-methoxy-ethyl)-amino]-propyl}-10-(3-hydroxy-phenyl)-6-methoxy-3a-methyl-3a,4,9,10-tetrahydro-2,9,10a-triaza-cyclopenta[b]fluorene-1,3-dione] | ≤ 39.8 nM | ≥ 3160 nM |
| C[C@@]12Cc3c([nH]c4ccc(Cl)cc34)[C@@H](c3cccc(O)c3)N1C(=O)N(CCNCC(F)F)C2=O (racemic) [Example 123, (3aSR,10RS)-6-Chloro-2-[2-(2,2-difluoro-ethylamino)-ethyl]-10-(3-hydroxy-phenyl)-3a-methyl-3a,4,9,10-tetrahydro-2,9,10a-triaza-cyclopenta[b]fluorene-1,3-dione] | 39.8 to 251 nM | ≥ 316 nM |
| CCNCCCN1C(=O)N2[C@H](c3cccc(O)c3)c3[nH]c4ccc(Cl)cc4c3C[C@@]2(C)C1=O (racemic) [Example 131, (3aSR,10RS)-6-Chloro-2-(3-ethylamino-propyl)-10-(3-hydroxy-phenyl)-3a-methyl-3a,4,9,10-tetrahydro-2,9,10a-triaza-cyclopenta[b]fluorene-1,3-dione] | ≤ 39.8 nM | ≥ 316 nM |
| COc1ccc2[nH]c3c(c2c1)C[C@@]1(C)C(=O)N(CCCNCC2CC2)C(=O)N1[C@@H]3c1cccc(O)c1 (racemic) [Example 95, (3aSR,10RS)-2-[3-(Cyclopropylmethyl-amino)-propyl]-10-(3-hydroxy-phenyl)-6-methoxy-3a-methyl-3a,4,9,10-tetrahydro-2,9,10a-triaza-cyclopenta[b]fluorene-1,3-dione] | ≤ 39.8 nM | ≥ 3160 nM |
| COc1ccc2[nH]c3c(c2c1)C[C@@]1(C)C(=O)N(CCCN2CC=CCC2)C(=O)N1[C@@H]3c1cccc(O)c1 (racemic) [Example 106, (3aSR,10RS)-2-[3-(3,6-Dihydro-2H-pyridin-1-yl)-propyl]-10-(3-hydroxy-phenyl)-6-methoxy-3a-methyl-3a,4,9,10-tetrahydro-2,9,10a-triaza-cyclopenta[b]fluorene-1,3-dione] | ≤ 39.8 nM | ≥ 316 nM |
| COCCNCCN1C(=O)N2[C@H](c3cccc(O)c3)c3[nH]c4ccc(OC)cc4c3C[C@@]2(C)C1=O (racemic) [Example 83, (3aSR,10RS)-10-(3-Hydroxy-phenyl)-6-methoxy-2-[2-(2-methoxy-ethylamino)-ethyl]-3a-methyl-3a,4,9,10-tetrahydro-2,9,10a-triaza-cyclopenta[b]fluorene-1,3-dione] | ≤ 39.8 nM | ≥ 3160 nM |
| COc1ccc2[nH]c3c(c2c1)C[C@@]1(C)C(=O)N(CCCN2CCCCCC2)C(=O)N1[C@@H]3c1cccc(O)c1 (racemic) [Example 113] | ≤ 39.8 nM | ≥ 316 nM |
